The source of these data is publication PMC6571863, “Bioassay-Guided Isolation of Triterpenoids as α-Glucosidase Inhibitors from Cirsium setosum” (Molecules, 2019).

In the assay the test system is α-Glucosidase enzyme (from Saccharomyces cerevisiae). Put plainly: α-glucosidase inhibitory assay (p-NPG substrate, spectrophotometric). The note with it: mean SD (n = 3); for Inhibition (%): tested concentration of all samples 100 μM; for IC50: α-glucosidase, p-NPG substrate. Format: biochemical. The procedure:
A total of 200 μL of reaction mixture, containing 70 μL of 0.1 M phosphate buffer (pH 6.8), 10 μL of 1.0 mg/mL reduced glutathione solution, and 10 μL of the sample solution (test concentration at 0.1 mg/mL), was added to each well of a 96-well plate, followed by the addition of 20 μL of 0.5 U/mL α-glucosidase solution. The plate was incubated at 37 °C for 15 min, and then 20 μL of p-Nitrophenyl α-D-glucopyranoside substrate was added to the mixture to start the reaction. The reaction mixture was incubated at 37 °C for 30 min, and then 70 μL of 0.1 M Na2CO3 solution was added to the mixture to terminate the reaction. All samples were analyzed in triplicate with three different concentrations near the IC50 values. The absorbance (A) was immediately recorded at 400 nm, using a spectrophotometrical method to estimate the enzymatic activity. The inhibition percentage was calculated by the following equation: Inhibitory rate (%) = [1 − (Atest − Ablank)/(control Atest − control Ablank)] × 100%.
Here, Atest represents the absorbance value of the experimental sample, Ablank represents the absorbance value of sample blank, control Atest represents the absorbance value of the control, and control Ablank represents the absorbance value of the blank.

The structures appear in SMILES notation.

For `C[C@H]1O[C@H](O[C@H]2[C@H](O)[C@@H](O)[C@@H](O[C@H]3[C@H](O)[C@@H](O)C(O)O[C@@H]3CO)O[C@@H]2CO)[C@H](O)[C@@H](O)[C@@H]1N[C@H]1C=C(CO)[C@@H](O)[C@H](O)[C@H]1O` (some centres unmarked) [Acarbose, acarbose, reference compound], the “Inhibition (%)” value came out at 78.35 ± 3.41%.

Regarding `CC1C(COO)=CCC2(C)CCC3(C)C(CCC4C5(C)CCC(O)C(C)(C)C5CCC43C)C12` (stereo not drawn) [Compound 1, 3β-hydroxy-30-hydroperoxy-20-taraxastene], the “Inhibition (%)” value was found to be 99.46 ± 1.04% and half-maximal inhibition (IC50) was put at 18.3 ± 1.27 µM.

For the compound `COC1C=C(C)C(C)C2C3CCC4C5(C)CCC(O)C(C)(C)C5CCC4(C)C3(C)CCC12C` (stereo not drawn) [Compound 2, 3β-hydroxy-22α-methoxy-20-taraxastene], the “Inhibition (%)” value is reported as 93.29 ± 0.74% and inhibition was half-maximal at 27 ± 0.89 µM (IC50).

For `C[C@@H]1C=C[C@H](O)[C@]2(C)CC[C@]3(C)[C@H](CCC4[C@@]5(C)CC[C@H](O)C(C)(C)C5CC[C@]43C)C12` (stereo partly drawn) [Compound 3, 30-nor-3β,22α-dihydroxy-20-taraxastene], the “Inhibition (%)” value amounted to 70.34 ± 2.73% and the half-maximal inhibitory concentration (IC50) is 44.6 ± 1.39 µM.

As for `CC1=CC(O)C2(C)CCC3(C)C(CCC4C5(C)CCC(O)C(C)(C)C5CCC43C)C2C1C` (stereo not drawn) [Compound 4, 3β,22α-dihydroxy-20-taraxastene], the “Inhibition (%)” value is given as 94.95 ± 1.67% and the 50% inhibitory concentration (IC50) stood at 17.5 ± 1.42 µM.

Consider `CC1=CC(=O)[C@]2(C)CC[C@]3(C)[C@H](CCC4[C@@]5(C)CCC(=O)C(C)(C)C5CC[C@]43C)C2[C@@H]1C` (some centres unmarked) [Compound 5, 20-taraxastene-3,22-dione], for which the “Inhibition (%)” value amounted to 60.78 ± 5.81% and the IC50 was 68.9 ± 1.82 µM.

Regarding `CC(=O)O[C@H]1CC[C@@]2(C)C(CC[C@]3(C)C2CC[C@@H]2C4[C@H](C)C(C)=CC(=O)[C@]4(C)CC[C@]23C)C1(C)C` (stereo partly drawn) [Compound 6, 3β-acetoxy-20-taraxasten-22-one], the “Inhibition (%)” value was found to be 63.06 ± 7.44% and it took 54.2 ± 2.25 µM to reach half-maximal inhibition (IC50).

For `CC1=CC(=O)C2(C)CCC3(C)C(CCC4C5(C)CCC(O)C(C)(C)C5CCC43C)C2C1C` (stereo not drawn) [Compound 7, 3β-hydroxy-20-taraxasten-22-one], the “Inhibition (%)” value was 95.59 ± 2.34% and the concentration for half-maximal inhibition (IC50) stood at 22.7 ± 0.25 µM.

Regarding `C[C@@H]1C=CC[C@]2(C)CC[C@]3(C)[C@H](CCC4[C@@]5(C)CC[C@H](O)C(C)(C)C5CC[C@]43C)C12` (stereo partly drawn) [Compound 8, 30-nor-3β-hydroxy-20-taraxastene], the “Inhibition (%)” value was 59.19 ± 3.81% and the IC50 was determined as 80.1 ± 2.13 µM.

One may read the IC50 as the point on the concentration scale where inhibition reaches its midpoint. A lower IC50 goes with greater potency.
